Reference: patent US3951952A, “Broad spectrum antibiotics” (Pfizer Inc., priority 1973, dated 1976)
In brackets after ≈: the same amount, converted by molar mass. Where two headings read alike, the source gives them in different places.

Key:
A. aerogenes 55A004 = assay: In vitro MIC, A. aerogenes 55A004; assay type: cell-based; settings: Klebsiella aerogenes, Table I, nutrient broth
Description: (§1) The in vitro activity of the herein described compounds renders them useful for topical application in the form of ointments, creams and the like, or for sterilization purposes, e.g., sick-room utensils.
(§2) Table I compares the in vitro profile of 6-[D-2-phenyl-2-(amidinopropionamido)acetamido]penicillanic acid (PAP) with ampicillin (AMP) and carbenicillin (CAR).

Kleb. pneumoniae 53A009 = assay: In vitro MIC, Kleb. pneumoniae 53A009; assay type: cell-based
Description: as §1, §2

E. coli 51A002 = assay: In vitro MIC, E. coli 51A002; assay type: cell-based; settings: Escherichia coli, Table I, nutrient broth
Description: as §1, §2

Ser. marcescens 63A001 = assay: In vitro MIC, Ser. marcescens 63A001; assay type: cell-based
Description: as §1, §2

Ps. aeruginosa 52A104 = assay: In vitro MIC, Ps. aeruginosa 52A104; assay type: cell-based
Description: as §1, §2

A. aerogenes 55A002 = assay: In vitro MIC, A. aerogenes 55A002; assay type: cell-based; settings: Klebsiella aerogenes, Table I, nutrient broth
Description: as §1, §2

E. coli 51A266 [1] = assay: In vivo protection of mice against experimental E. coli 51A266 infection; settings: doses 0.5, 4 and 24 hours; for % Protection (% survivors): Table II; for % Survivors: Table IV
Protocol: Table II presents the in vivo comparison data for the three compounds contained in Table I aganst several experimental infections in mice.
The values (% survivors) are obtained under standard conditions known to those skilled in the art. For the E. coli organism, the test compound is administered to the infected mice by a multiple dosing regimen in which the first dose is given 0.5 hour after inoculation and is repeated 4 and 24 hours later.
Table IV presents in vivo comparison data for the four compounds in Table III against E. coli infections in mice.
The values, reported as % survivors, are obtained under standard conditions familiar to those skilled in the art. The test compound is administered to the infected mice by a multiple dosing regimen in which the first dose is given 0.5 hour after inoculation and is repeated 4 and 24 hours later.

S. aureus = assay: In vitro MIC, S. aureus; assay type: cell-based; settings: Staphylococcus aureus, Table I, nutrient broth
Description: as §1, §2

Kleb. pneumoniae 53A015 = assay: In vitro MIC, Kleb. pneumoniae 53A015; assay type: cell-based; settings: Klebsiella pneumoniae, Table I, nutrient broth
Description: as §1, §2

Ps. aeruginosa 52A173 = assay: In vitro MIC, Ps. aeruginosa 52A173; assay type: cell-based; settings: Pseudomonas aeruginosa, Table I, nutrient broth
Description: as §1, §2

P. vulgaris 57A059 = assay: In vitro MIC, P. vulgaris 57A059; assay type: cell-based; settings: Proteus vulgaris
Description: as §1, §2

E. coli 51A266 [2] = assay: In vitro MIC, E. coli 51A266; assay type: cell-based
Description: as §1, §2

Ps. aeruginosa 52A490 = assay: In vitro MIC, Ps. aeruginosa 52A490; assay type: cell-based
Description: as §1, §2

gram-negative bacteria = settings: in words, U.S. Pat. No. 3,142,673, cited from earlier work
S. aureus 01A005 = assay: In vitro MIC, S. aureus 01A005; assay type: cell-based; settings: Table III
Description: as §1, §2

A. aerogenes = assay: In vitro MIC, A. aerogenes (strain not given); assay type: cell-based; settings: Table III
Description: as §1, §2

P. mirabilis 57C015 = assay: In vitro MIC, P. mirabilis 57C015; assay type: cell-based; settings: Table III
Description: as §1, §2

[3] = Klebsiella pneumoniae, Table I, nutrient broth, read-out: MIC
[4] = Serratia marcescens, Table I, nutrient broth, read-out: MIC
[5] = Pseudomonas aeruginosa, Table I, nutrient broth, read-out: MIC
[6] = Table I, P. vulgaris 57A059, nutrient broth, read-out: MIC
[7] = Escherichia coli, Table I, E. coli 51A266, nutrient broth, read-out: MIC

Compound	MIC (Kleb. pneumoniae 53A009; [3])	MIC (E. coli 51A002)	MIC (Ser. marcescens 63A001; [4])	MIC (Ps. aeruginosa 52A104; [5])	MIC (A. aerogenes 55A002)	MIC (Kleb. pneumoniae 53A015)	MIC (Kleb. pneumoniae 53A009; Table III)	MIC (Ser. marcescens 63A001; Table III)	MIC (S. aureus 01A005)	MIC (Ps. aeruginosa 52A104; Table III)	% Survivors (E. coli 51A266 [1]; PO, 25 mg./kg.)	% Survivors (E. coli 51A266 [1]; PO, 50 mg./kg.)	% Survivors (E. coli 51A266 [1]; PO, 200 mg./kg.)	% Survivors (E. coli 51A266 [1]; SC, 25 mg./kg.)	% Survivors (E. coli 51A266 [1]; SC, 50 mg./kg.)	% Survivors (E. coli 51A266 [1]; SC, 200 mg./kg.)	MIC (A. aerogenes)	MIC (P. mirabilis 57C015)	MIC (E. coli 51A266 [2]; Table III, E. coli 51A266)	MIC (Ps. aeruginosa 52A490; Table III)	further results
CC1(C)S[C@@H]2[C@H](NC(=O)[C@H](N)c3ccccc3)C(=O)N2[C@H]1C(=O)O [AMP, ampicillin, reference compound]	100 µg/mL (≈ 286 µM)	200 µg/mL (≈ 572 µM)	200 µg/mL (≈ 572 µM)	200 µg/mL (≈ 572 µM)	100 µg/mL (≈ 286 µM)	250 µg/mL (≈ 715 µM)															MIC (A. aerogenes 55A004): 5 µg/mL (≈ 14.3 µM); % Protection (% survivors) (E. coli 51A266 [1]; PO, 50 mg./kg.): 80%; % Protection (% survivors) (E. coli 51A266 [1]; PO, 200 mg./kg.): 90%; % Protection (% survivors) (E. coli 51A266 [1]; SC, 50 mg./kg.): 80%; % Protection (% survivors) (E. coli 51A266 [1]; SC, 200 mg./kg.): 90%; MIC (S. aureus): 0.09 µg/mL (≈ 0.258 µM); MIC (Ps. aeruginosa 52A173): 38 µg/mL (≈ 109 µM); MIC (P. vulgaris 57A059; [6]): 6 µg/mL (≈ 17.2 µM); MIC (E. coli 51A266 [2]; Escherichia coli, 51A266): 3.12 µg/mL (≈ 8.93 µM); MIC (Ps. aeruginosa 52A490; [5]): 0.78 µg/mL (≈ 2.23 µM)
CC1(C)S[C@@H]2[C@H](NC(=O)C(C(=O)O)c3ccccc3)C(=O)N2[C@H]1C(=O)O (stereo partly drawn) [CAR, carbenicillin]	200 µg/mL (≈ 529 µM)	200 µg/mL (≈ 529 µM)	25 µg/mL (≈ 66.1 µM)	50 µg/mL (≈ 132 µM)	25 µg/mL (≈ 66.1 µM)	> 200 µg/mL															MIC (A. aerogenes 55A004): 50 µg/mL (≈ 132 µM); utility via oral administration (gram-negative bacteria; oral): limited utility via oral administration; efficacy against gram-negative bacteria (gram-negative bacteria; parenteral route): greater efficacy against gram-negative bacteria via the parenteral route of administration; MIC (S. aureus): 1.56 µg/mL (≈ 4.12 µM); MIC (Ps. aeruginosa 52A173): 75 µg/mL (≈ 198 µM); MIC (P. vulgaris 57A059; 57A059): 12.5 µg/mL (≈ 33 µM); MIC (E. coli 51A266 [2]; [7]): 3.12 µg/mL (≈ 8.25 µM); MIC (Ps. aeruginosa 52A490; [5]): 0.6 µg/mL (≈ 1.59 µM)
CC1(C)S[C@@H]2[C@H](NC(=O)[C@H](NC(=O)CCC(=N)N)c3ccccc3)C(=O)N2[C@H]1C(=O)O [PAP, 6-[D-2-phenyl-2-(amidinopropionamido)acetamido]penicillanic acid]	25 µg/mL (≈ 55.9 µM)	200 µg/mL (≈ 447 µM)	3.12 µg/mL (≈ 6.97 µM)	12.5 µg/mL (≈ 27.9 µM)	100 µg/mL (≈ 223 µM)	> 200 µg/mL															MIC (Ps. aeruginosa 52A173): 0.78 µg/mL (≈ 1.74 µM); MIC (P. vulgaris 57A059; [6]): 1.56 µg/mL (≈ 3.49 µM); MIC (E. coli 51A266 [2]; [7]): 1.56 µg/mL (≈ 3.49 µM); MIC (Ps. aeruginosa 52A490; [5]): 1.56 µg/mL (≈ 3.49 µM)
CC1(C)S[C@@H]2[C@H](NC(=O)C(NC(=O)CNC(=N)c3ccc(Br)cc3)c3ccccc3)C(=O)N2[C@H]1C(=O)O (stereo partly drawn) [X = Br]							12.5 µg/mL (≈ 21.2 µM)	6.25 µg/mL (≈ 10.6 µM)	0.39 µg/mL (≈ 0.663 µM)	25 µg/mL (≈ 42.5 µM)	10%	0%	0%	50%	60%	90%	3.12 µg/mL (≈ 5.3 µM)	3.12 µg/mL (≈ 5.3 µM)	0.39 µg/mL (≈ 0.663 µM)	6.25 µg/mL (≈ 10.6 µM)	
CC1(C)S[C@@H]2[C@H](NC(=O)C(NC(=O)CNC(=N)c3ccc(Cl)cc3)c3ccccc3)C(=O)N2[C@H]1C(=O)O (stereo partly drawn) [X = Cl]							12.5 µg/mL (≈ 23 µM)	6.25 µg/mL (≈ 11.5 µM)	0.39 µg/mL (≈ 0.717 µM)	25 µg/mL (≈ 46 µM)	0%	0%	0%	50%	60%	70%	3.12 µg/mL (≈ 5.73 µM)	3.12 µg/mL (≈ 5.73 µM)	0.78 µg/mL (≈ 1.43 µM)	12.5 µg/mL (≈ 23 µM)	
CC1(C)S[C@@H]2[C@H](NC(=O)C(NC(=O)CNC(=N)c3ccc(F)cc3)c3ccccc3)C(=O)N2[C@H]1C(=O)O (stereo partly drawn) [X = F]							25 µg/mL (≈ 47.4 µM)	6.25 µg/mL (≈ 11.8 µM)	0.39 µg/mL (≈ 0.739 µM)	12.5 µg/mL (≈ 23.7 µM)	10%	0%	10%	50%	70%	90%	25 µg/mL (≈ 47.4 µM)	3.12 µg/mL (≈ 5.91 µM)	1.56 µg/mL (≈ 2.96 µM)	3.12 µg/mL (≈ 5.91 µM)	
CC1(C)S[C@@H]2[C@H](NC(=O)C(NC(=O)CNC(=N)c3ccccc3)c3ccccc3)C(=O)N2[C@H]1C(=O)O (stereo partly drawn) [X = H]							100 µg/mL (≈ 196 µM)	12.5 µg/mL (≈ 24.5 µM)	0.78 µg/mL (≈ 1.53 µM)	25 µg/mL (≈ 49.1 µM)	0%	0%	10%	10%	70%	90%	25 µg/mL (≈ 49.1 µM)	12.5 µg/mL (≈ 24.5 µM)	12.5 µg/mL (≈ 24.5 µM)	12.5 µg/mL (≈ 24.5 µM)	
